In brackets after ≈: the same amount, converted by molar mass.
Key:
Format in all cases: functional
Settings in all cases: time 18-20 hrs
Staphylococcus aureus [1] = assay: Antibacterial activity against methicillin-sensitive Staphylococcus aureus GP-001 ATCC 25923 assessed as reduction in bacterial growth in CAMHB incubated for 18 to 20 hrs by broth dilution method
Staphylococcus aureus [2] = assay: Antibacterial activity against methicillin-resistant Staphylococcus aureus GP-021 ATCC 33591 assessed as reduction in bacterial growth in CAMHB incubated for 18 to 20 hrs by broth dilution method
Staphylococcus aureus [3] = assay: Antibacterial activity against methicillin-resistant Staphylococcus aureus GP-020 ATCC 43300 assessed as reduction in bacterial growth in CAMHB incubated for 18 to 20 hrs by broth dilution method
Staphylococcus aureus [4] = assay: Antibacterial activity against daptomycin and methicillin resistant Staphylococcus aureus GP-036 assessed as reduction in bacterial growth in CAMHB incubated for 18 to 20 hrs by broth dilution method
Staphylococcus aureus [5] = assay: Antibacterial activity against vancomycin intermediate and methicillin resistant Staphylococcus aureus GP-035 ATCC 700699 assessed as reduction in bacterial growth in CAMHB incubated for 18 to 20 hrs by broth dilution method
[6] = tested on: Staphylococcus epidermidis; assay: Antibacterial activity against Staphylococcus epidermidis GP-017 ATCC 12228 assessed as reduction in bacterial growth in CAMHB incubated for 18 to 20 hrs by broth dilution method
Enterococcus sp. [7] = assay: Antibacterial activity against vancomycin resistant Enterococcus sp. GP-026 ATCC 700221 assessed as reduction in bacterial growth in CAMHB incubated for 18 to 20 hrs by broth dilution method
[8] = tested on: Staphylococcus epidermidis; assay: Antibacterial activity against Staphylococcus epidermidis GP-033 NRS 60 assessed as reduction in bacterial growth in CAMHB incubated for 18 to 20 hrs by broth dilution method
Enterococcus sp. [9] = assay: Antibacterial activity against Enterococcus sp. GP-024 ATCC 35667 assessed as reduction in bacterial growth in CAMHB incubated for 18 to 20 hrs by broth dilution method

Structure (SMILES)	MIC80 (Staphylococcus aureus [1])	MIC80 (Staphylococcus aureus [2])	MIC80 (Staphylococcus aureus [3])	MIC80 (Staphylococcus aureus [4])	MIC80 (Staphylococcus aureus [5])	MIC80 [6]	MIC80 (Enterococcus sp. [7])	MIC80 [8]	MIC80 (Enterococcus sp. [9])
CCCCCCCn1c(=O)c2c(O)cc(=O)oc2c2cc(CCCCCC)ccc21	256 µg/mL (≈ 622 µM)	> 256 µg/mL	256 µg/mL (≈ 622 µM)						
CCCCCCn1c(=O)c2c(O)cc(=O)oc2c2ccccc21	16 µg/mL (≈ 51.1 µM)	16 µg/mL (≈ 51.1 µM)	8 µg/mL (≈ 25.5 µM)	8 µg/mL (≈ 25.5 µM)	8 µg/mL (≈ 25.5 µM)	8 µg/mL (≈ 25.5 µM)	8 µg/mL (≈ 25.5 µM)	2 µg/mL (≈ 6.38 µM)	> 64 µg/mL
CCCCCCCn1c(=O)c2c(O)cc(=O)oc2c2cc(OC)ccc21	8 µg/mL (≈ 22.4 µM)	≤ 8 µg/mL	≤ 8 µg/mL						
CCCCCCCn1c(=O)c2c(O)cc(=O)oc2c2ccccc21	8 µg/mL (≈ 24.4 µM)	8 µg/mL (≈ 24.4 µM)	4 µg/mL (≈ 12.2 µM)	4 µg/mL (≈ 12.2 µM)	8 µg/mL (≈ 24.4 µM)	4 µg/mL (≈ 12.2 µM)	16 µg/mL (≈ 48.9 µM)	4 µg/mL (≈ 12.2 µM)	> 128 µg/mL
CCCCCCCCCCn1c(=O)c2c(O)cc(=O)oc2c2ccccc21	> 64 µg/mL	> 64 µg/mL	4 µg/mL (≈ 10.8 µM)	> 64 µg/mL	> 64 µg/mL	4 µg/mL (≈ 10.8 µM)	0.5 µg/mL (≈ 1.35 µM)	> 64 µg/mL	> 64 µg/mL
CCCCCCCn1c(=O)c2c(O)cc(=O)oc2c2cc(Cl)ccc21	8 µg/mL (≈ 22.1 µM)	> 128 µg/mL	1 µg/mL (≈ 2.76 µM)	1 µg/mL (≈ 2.76 µM)	128 µg/mL (≈ 354 µM)	1 µg/mL (≈ 2.76 µM)	64 µg/mL (≈ 177 µM)	8 µg/mL (≈ 22.1 µM)	> 128 µg/mL
CCCCCCCn1c(=O)c2c(O)cc(=O)oc2c2c(C)cc(C)cc21	> 256 µg/mL	> 256 µg/mL	> 256 µg/mL						
CCCCCCCn1c(=O)c2c(O)cc(=O)oc2c2cc(C(C)(C)C)ccc21	2 µg/mL (≈ 5.22 µM)	2 µg/mL (≈ 5.22 µM)	1 µg/mL (≈ 2.61 µM)	1 µg/mL (≈ 2.61 µM)	1 µg/mL (≈ 2.61 µM)	2 µg/mL (≈ 5.22 µM)	4 µg/mL (≈ 10.4 µM)	0.25 µg/mL (≈ 0.652 µM)	> 128 µg/mL
CCCCCCCCCn1c(=O)c2c(O)cc(=O)oc2c2ccccc21	4 µg/mL (≈ 11.3 µM)	2 µg/mL (≈ 5.63 µM)	2 µg/mL (≈ 5.63 µM)	1 µg/mL (≈ 2.81 µM)	2 µg/mL (≈ 5.63 µM)	2 µg/mL (≈ 5.63 µM)	4 µg/mL (≈ 11.3 µM)	2 µg/mL (≈ 5.63 µM)	> 4 µg/mL
CCCCCCCn1c(=O)c2c(O)cc(=O)oc2c2cc(F)ccc21	8 µg/mL (≈ 23.2 µM)	4 µg/mL (≈ 11.6 µM)	2 µg/mL (≈ 5.79 µM)	2 µg/mL (≈ 5.79 µM)	4 µg/mL (≈ 11.6 µM)	4 µg/mL (≈ 11.6 µM)	32 µg/mL (≈ 92.7 µM)	8 µg/mL (≈ 23.2 µM)	> 64 µg/mL
CCCCCCCCn1c(=O)c2c(O)cc(=O)oc2c2ccccc21	8 µg/mL (≈ 23.4 µM)	4 µg/mL (≈ 11.7 µM)	2 µg/mL (≈ 5.86 µM)	4 µg/mL (≈ 11.7 µM)	4 µg/mL (≈ 11.7 µM)	4 µg/mL (≈ 11.7 µM)	1 µg/mL (≈ 2.93 µM)	1 µg/mL (≈ 2.93 µM)	> 128 µg/mL
CCCCCCCn1c(=O)c2c(O)cc(=O)oc2c2cc(C)ccc21	> 128 µg/mL	64 µg/mL (≈ 187 µM)	1 µg/mL (≈ 2.93 µM)	> 128 µg/mL	> 128 µg/mL	16 µg/mL (≈ 46.9 µM)	32 µg/mL (≈ 93.7 µM)	> 64 µg/mL	128 µg/mL (≈ 375 µM)

Source: ChEMBL document CHEMBL5137100, “N-Alkyl-2-Quinolonopyrones Demonstrate Antimicrobial Activity against ESKAPE Pathogens Including Staphylococcus aureus” (2022)
